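Compound exposure: 48 hours, 5 concentrations, 96-well plates. Abbreviation: GI50, concentration required for 50% inhibition of growth. TGI denotes the concentration required for complete inhibition of growth.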
Assays:
Assay in all cases: NCI-60 cell line screen, 48 h
[1] = test system: SF-295 CNS
[2] = test system: CCRF-CEM leukemia
[3] = test system: A498 renal
[4] = test system: SK-MEL-5 melanoma
[5] = test system: BT-549 breast
[6] = test system: TK-10 renal
[7] = test system: K-562 leukemia
[8] = test system: HCT-116 colon
[9] = test system: NCI-H226 lung
[10] = test system: ACHN renal
[11] = test system: 786-0 renal
[12] = test system: SF-268 CNS
[13] = test system: OVCAR-4 ovarian
[14] = test system: SF-539 CNS
[15] = test system: RPMI-8226 leukemia
[16] = test system: OVCAR-8 ovarian
[17] = test system: KM12 colon
[18] = test system: HOP-62 NSCLC
[19] = test system: UACC-257 melanoma
[20] = test system: COLO 205 colon
[21] = test system: M14 melanoma
[22] = test system: SW-620 colon
[23] = test system: U251 CNS
[24] = test system: MDA-MB-468 breast
[25] = test system: HS 578T breast
[26] = test system: IGROV1 ovarian
[27] = test system: MALME-3M melanoma
[28] = test system: HCT-15 colon
[29] = test system: NCI/ADR-RES ovarian
[30] = test system: EKVX NSCLC
[31] = test system: CAKI-1 renal
[32] = test system: LOX IMVI melanoma
[33] = test system: MDA-MB-435
[34] = test system: SR leukemia
[35] = test system: NCI-H23 lung
[36] = test system: HCC-2998 colon
[37] = test system: OVCAR-5 ovarian
[38] = test system: UACC-62 melanoma
[39] = test system: OVCAR-3 ovarian
[40] = test system: NCI-H460 lung
[41] = test system: PC-3 prostate
[42] = test system: SNB-19 CNS
[43] = test system: MCF7 breast
[44] = test system: UO-31 renal
[45] = test system: SK-MEL-28 melanoma
[46] = test system: MOLT-4 leukemia
[47] = test system: HL-60(TB) leukemia
[48] = test system: NCI-H522 lung
[49] = test system: HOP-92 NSCLC
[50] = test system: MDA-MB-231 breast
[51] = test system: DU-145 prostate
[52] = test system: SN12C renal
[53] = test system: SNB-75 CNS
[54] = test system: SK-OV-3 ovarian
[55] = test system: HT29 colon
[56] = test system: A549 NSCLC
[57] = test system: RXF 393 renal
[58] = test system: SK-MEL-2 melanoma
[59] = test system: T-47D breast

## C#C[C@]1(O)CC[C@H]2[C@@H]3CC=C4c5sc(-c6ccc([N+](=O)[O-])cc6)nc5CC[C@]4(C)[C@H]3CC[C@@]21C
[1]
  GI50: 0.41 µM
  TGI: 1.8 µM
[2]
  GI50: 4.36 µM
  TGI: 31.9 µM
[3]
  GI50: 4.04 µM
  TGI: 13.8 µM
[4]
  GI50: 5.45 µM
  TGI: 17.9 µM
[5]
  GI50: 3.76 µM
  TGI: 16.7 µM
[6]
  GI50: 13.8 µM
  TGI: 26.7 µM
[7]
  GI50: 3.26 µM
  TGI: > 100 µM
[8]
  GI50: 10.2 µM
  TGI: 23.3 µM
[9]
  GI50: 18.1 µM
  TGI: 50.2 µM
[10]
  GI50: 12.2 µM
  TGI: 24.6 µM
[11]
  GI50: 1.84 µM
  TGI: 13.4 µM
[12]
  GI50: 12.8 µM
  TGI: 43.6 µM
[13]
  GI50: 15.4 µM
  TGI: 43.7 µM
[14]
  GI50: 0.895 µM
  TGI: 3.61 µM
[15]
  GI50: 0.404 µM
  TGI: 6.27 µM
[16]
  GI50: 15.3 µM
  TGI: 38.5 µM
[17]
  GI50: 17 µM
  TGI: 38.4 µM
[18]
  GI50: 11.5 µM
  TGI: 30 µM
[19]
  GI50: 12.1 µM
  TGI: 25 µM
[20]
  GI50: 14.9 µM
  TGI: 33.8 µM
[21]
  GI50: 2.74 µM
  TGI: 12.2 µM
[22]
  GI50: 8.39 µM
  TGI: 27.2 µM
[23]
  GI50: 2.99 µM
  TGI: 18.8 µM
[24]
  GI50: 12.4 µM
  TGI: 28.9 µM
[25]
  GI50: 2.04 µM
  TGI: 10.3 µM
[26]
  GI50: 10.3 µM
  TGI: 30.9 µM
[27]
  GI50: 3.59 µM
  TGI: 16.5 µM
[28]
  GI50: 3.99 µM
  TGI: 23.9 µM
[29]
  GI50: 16.4 µM
  TGI: 67.9 µM
[30]
  GI50: 10.1 µM
  TGI: 23.8 µM
[31]
  GI50: 10.8 µM
  TGI: 22.7 µM
[32]
  GI50: 6.89 µM
  TGI: 33.1 µM
[33]
  GI50: 11.9 µM
  TGI: 25.9 µM
[34]
  GI50: 2.49 µM
  TGI: > 100 µM
[35]
  GI50: 13.8 µM
  TGI: 29.9 µM
[36]
  GI50: 7.21 µM
  TGI: 23.1 µM
[37]
  GI50: 12 µM
  TGI: 24.3 µM
[38]
  GI50: 14.3 µM
  TGI: 27.4 µM
[39]
  GI50: 14.9 µM
  TGI: 31.7 µM
[40]
  GI50: 6.19 µM
  TGI: 25.8 µM
[41]
  GI50: 7.18 µM
  TGI: 95.7 µM
[42]
  GI50: 13.8 µM
  TGI: 29.8 µM
[43]
  GI50: 3.07 µM
  TGI: 16.6 µM
[44]
  GI50: 5.02 µM
  TGI: 16.2 µM
[45]
  GI50: 7.33 µM
  TGI: 20.5 µM
[46]
  GI50: 2.61 µM
  TGI: 33.1 µM
[47]
  GI50: 13.5 µM
  TGI: 42.6 µM
[48]
  GI50: 15.1 µM
  TGI: 38 µM
[49]
  GI50: 22.3 µM
  TGI: 47.4 µM
[50]
  GI50: 12.3 µM
  TGI: 27.4 µM
[51]
  GI50: 12.8 µM
  TGI: 30.3 µM
[52]
  GI50: 13 µM
  TGI: 26.3 µM
[53]
  GI50: 2.93 µM
  TGI: 18.6 µM
[54]
  GI50: 12.3 µM
  TGI: 30.6 µM
[55]
  GI50: 11.4 µM
  TGI: 35.2 µM
[56]
  GI50: 12.5 µM
  TGI: 36.2 µM
[57]
  GI50: 0.625 µM
  TGI: 3.18 µM
[58]
  GI50: 7.18 µM
  TGI: 21.3 µM
[59]
  GI50: 7.23 µM
  TGI: 25.2 µM
